Eight molecules from ChEMBL document CHEMBL5634188, “Expanding TPD Horizons: Innovative Strategies Targeting BCL6 and SMARCA2” (ACS Med Chem Lett, 2024) can be followed below.

Holding throughout (format): cell-based
Assay [1] has as its target T1, Protein cereblon/SWI/SNF-related matrix-associated actin-dependent regulator of chromatin subfamily A member 2 (Homo sapiens, UniProt P51531+Q96SW2). Put plainly: PROTAC activity at CRBN/N-terminal HiBiT-tagged SMARCA2 in human A549 cells assessed as induction of SMARCA2 degradation incubated for 6 hrs by Nano-Glo HiBiT Lytic reagent based luminescence plate reader analysis. For orientation: HiBiT is a short tag that completes a luciferase, so light tracks the accessible tagged protein.

The target of assay [2] is Protein cereblon/B-cell lymphoma 6 protein (Homo sapiens, UniProt P41182+Q96SW2). Kind of assay: PROTAC activity at CRBN/N-terminal HiBiT tagged BCL6 in human HT-1080 cells assessed as induction of BCL6 degradation incubated for 5 hrs by NANO-GLO HiBiT Lytic reagent based luminescence plate reader analysis.
Assay [3] concerns the target Protein cereblon/B-cell lymphoma 6 protein (Homo sapiens) (UniProt Q96SW2+P41182). Put plainly: PROTAC activity at CRBN/N-terminal HiBiT tagged BCL6 in human HT-1080 cells assessed as induction of BCL6 degradation by measuring minimum efficacy incubated for 5 hrs by NANO-GLO HiBiT Lytic reagent based luminescence plate reader analysis.
Assay [4] has as its target T1, Protein cereblon/SWI/SNF-related matrix-associated actin-dependent regulator of chromatin subfamily A member 2. Put plainly: PROTAC activity at CRBN/N-terminal HiBiT-tagged SMARCA2 in human A549 cells assessed as induction of SMARCA2 degradation by measuring maximal efficacy incubated for 6 hrs by Nano-Glo HiBiT Lytic reagent based luminescence plate reader analysis relative to control.

Protein cereblon/B-cell lymphoma 6 protein (Homo sapiens), sequence (Q96SW2 whole entry, looked up, other chains not shown): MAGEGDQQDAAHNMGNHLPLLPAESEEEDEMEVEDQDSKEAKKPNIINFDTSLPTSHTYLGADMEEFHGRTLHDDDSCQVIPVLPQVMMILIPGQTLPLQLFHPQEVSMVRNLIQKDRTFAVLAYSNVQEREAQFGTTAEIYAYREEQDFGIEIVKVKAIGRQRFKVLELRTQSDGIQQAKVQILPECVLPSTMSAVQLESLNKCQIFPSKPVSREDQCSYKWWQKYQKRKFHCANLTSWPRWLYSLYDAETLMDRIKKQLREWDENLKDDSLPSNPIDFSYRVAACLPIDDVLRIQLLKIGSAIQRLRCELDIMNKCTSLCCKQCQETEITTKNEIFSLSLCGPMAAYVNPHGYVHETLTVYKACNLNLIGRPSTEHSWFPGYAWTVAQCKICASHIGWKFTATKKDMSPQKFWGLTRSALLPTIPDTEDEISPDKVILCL
T1 sequence (P51531 whole entry): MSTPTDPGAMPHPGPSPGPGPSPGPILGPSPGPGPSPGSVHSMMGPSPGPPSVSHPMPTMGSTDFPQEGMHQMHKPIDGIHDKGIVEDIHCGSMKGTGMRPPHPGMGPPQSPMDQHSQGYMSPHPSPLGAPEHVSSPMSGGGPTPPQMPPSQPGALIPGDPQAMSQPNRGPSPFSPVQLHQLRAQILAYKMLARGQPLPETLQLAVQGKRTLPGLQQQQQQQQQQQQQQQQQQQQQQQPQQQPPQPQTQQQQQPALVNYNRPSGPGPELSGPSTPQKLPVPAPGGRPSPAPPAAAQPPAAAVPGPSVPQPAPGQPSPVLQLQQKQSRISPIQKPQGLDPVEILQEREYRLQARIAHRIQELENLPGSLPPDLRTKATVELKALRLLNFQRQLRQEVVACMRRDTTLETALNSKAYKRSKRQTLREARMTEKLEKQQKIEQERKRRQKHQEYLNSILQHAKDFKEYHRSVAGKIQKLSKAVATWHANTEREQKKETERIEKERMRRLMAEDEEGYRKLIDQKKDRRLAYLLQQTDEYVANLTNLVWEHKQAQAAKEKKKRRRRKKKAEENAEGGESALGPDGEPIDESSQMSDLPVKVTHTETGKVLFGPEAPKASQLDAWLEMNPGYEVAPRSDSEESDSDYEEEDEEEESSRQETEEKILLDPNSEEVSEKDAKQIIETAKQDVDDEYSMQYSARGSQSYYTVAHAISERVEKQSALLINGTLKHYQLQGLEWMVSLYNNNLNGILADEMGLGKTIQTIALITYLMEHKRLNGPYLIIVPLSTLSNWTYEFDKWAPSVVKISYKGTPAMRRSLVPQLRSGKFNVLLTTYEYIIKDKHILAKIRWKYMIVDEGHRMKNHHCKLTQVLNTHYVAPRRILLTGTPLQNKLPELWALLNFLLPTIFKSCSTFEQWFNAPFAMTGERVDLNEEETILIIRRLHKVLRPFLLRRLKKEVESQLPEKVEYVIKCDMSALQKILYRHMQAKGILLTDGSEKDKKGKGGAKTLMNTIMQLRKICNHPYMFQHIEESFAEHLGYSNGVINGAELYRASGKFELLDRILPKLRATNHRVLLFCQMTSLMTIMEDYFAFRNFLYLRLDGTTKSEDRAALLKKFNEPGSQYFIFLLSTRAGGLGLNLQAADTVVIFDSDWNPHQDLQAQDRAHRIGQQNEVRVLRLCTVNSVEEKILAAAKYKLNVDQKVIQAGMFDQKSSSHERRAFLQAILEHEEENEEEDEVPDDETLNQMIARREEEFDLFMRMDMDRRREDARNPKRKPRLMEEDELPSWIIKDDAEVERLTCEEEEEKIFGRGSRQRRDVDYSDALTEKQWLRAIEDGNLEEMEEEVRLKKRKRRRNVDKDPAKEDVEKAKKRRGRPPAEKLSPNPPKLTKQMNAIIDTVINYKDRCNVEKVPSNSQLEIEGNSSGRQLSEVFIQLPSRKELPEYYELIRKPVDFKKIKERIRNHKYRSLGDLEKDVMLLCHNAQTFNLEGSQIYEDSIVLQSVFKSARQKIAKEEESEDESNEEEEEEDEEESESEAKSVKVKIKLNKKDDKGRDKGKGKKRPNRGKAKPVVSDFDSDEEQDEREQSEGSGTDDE
T1 sequence (Q96SW2 whole entry): as the sequence (Q96SW2 whole entry, looked up, other chains not shown) above
Protein cereblon/B-cell lymphoma 6 protein, sequence (Q96SW2 whole entry, looked up, other chains not shown): as above

Broadly, the DC50 is the concentration giving 50% degradation. Turning to `CN(C(=O)N1CCC(Oc2cccc(N3[C@@H]4COC[C@H]3CC(c3cc(-c5ccccc5O)nnc3N)C4)c2)CC1)C1CCN(c2cccc3c2CCN3[C@@H]2CCC(=O)NC2=O)CC1` (stereo not given in full), the DC50 in assay [1] turned out to be 9.47 nM.
In general, EC50 refers to the concentration needed to bring the measured effect to its halfway point. Take `C[C@H](C1CCN(c2ncc(Cl)c(Nc3ccc4c(c3)c3c(c(=O)n4C)OCC(F)(F)[C@H](C4CC4)N3)n2)CC1)C1CCN(c2cccc3c(C4CCC(=O)NC4=O)nn(C)c23)CC1` (stereo not given in full): the EC50 in assay [2] was at most 25 nM. Further, the Emin in assay [3] is under 30%.
`C[C@H]1CN(c2ncc(Cl)c(Nc3ccc4c(c3)c3c(c(=O)n4C)OCC(F)(F)[C@H](C4CC4)N3)n2)CCN1CC1CCN(c2cccc3c(C4CCC(=O)NC4=O)nn(C)c23)CC1` (stereo not given in full): the Emin in assay [3] was under 30%.
Still for that read-out and setting: the value for `Cn1nc(C2CCC(=O)NC2=O)c2cccc(N3CCN(CC4CCN(c5ncc(Cl)c(Nc6ccc7c(c6)c6c(c(=O)n7C)OCC(F)(F)[C@H](C7CC7)N6)n5)CC4)CC3)c21` (stereo not given in full) was under 30%.
As for `Nc1nnc(-c2ccccc2O)cc1C1C[C@H]2COC[C@@H](C1)N2c1cccc(OC2CCN(C(=O)CCC3CN(c4cccc5c4CCN5[C@@H]4CCC(=O)NC4=O)C3)CC2)c1` (stereo not given in full), the DC50 in assay [1] is 13 nM.
As to `CN(c1cccc(N2CCC(O)(CC(=O)N3CCC(Oc4cccc(N5[C@@H]6COC[C@H]5CC(c5cc(-c7ccccc7O)nnc5N)C6)c4)CC3)CC2)c1)C1CCC(=O)NC1=O` (stereo not given in full), the DC50 in assay [1] is 13.1 nM.
Broadly, the Emax is the greatest response seen or fitted, relative to the assay's reference. Turning to `Nc1nnc(-c2ccccc2O)cc1C1C[C@H]2COC[C@@H](C1)N2c1cccc(OC2CCN(C(=O)CC3(O)CCN(c4cccc5c4CCN5C4CCC(=O)NC4=O)CC3)CC2)c1` (stereo not given in full), the maximal effect (Emax) in assay [4] was determined as 22.9%. For the same molecule, in assay [1], the DC50 is 5.8 nM.
For the molecule `Cn1c(=O)c2c(c3cc(Nc4nc(N5CCN(CC6CCN(c7cccc8c7C(=O)N(C7CCC(=O)NC7=O)C8=O)CC6)CC5)ncc4Cl)ccc31)N[C@@H](C1CC1)C(F)(F)CO2` (stereo not given in full), the Emin in assay [3] is under 30%.
